Measurements taken from US12404232B2, “Compounds and compositions for intracellular delivery of therapeutic agents” (ModernaTX, Inc., priority 2015, dated 2025).

Key:
[1] = Particle size and polydispersity index of nanoparticle compositions (Zetasizer Nano ZS); assay type: physicochemical; conditions: for Size (nm): nanoparticle composition lipid:DSPC:cholesterol:PEG-DMG 50:10:38.5:1.5 mol %, mRNA encoding Luc or hEPO (Table 1A); for PDI: nanoparticle composition 50:10:38.5:1.5 mol % (Table 1A)
Description: Nanoparticle compositions may be characterized by a variety of methods. For example, microscopy (e.g., transmission electron microscopy or scanning electron microscopy) may be used to examine the morphology and size distribution of a nanoparticle composition. Dynamic light scattering or potentiometry (e.g., potentiometric titrations) may be used to measure zeta potentials. Dynamic light scattering may also be utilized to determine particle sizes. Instruments such as the Zetasizer Nano ZS (Malvern Instruments Ltd, Malvern, Worcestershire, UK) may also be used to measure multiple characteristics of a nanoparticle composition, such as particle size, polydispersity index, and zeta potential.
A Zetasizer Nano ZS (Malvern Instruments Ltd, Malvern, Worcestershire, UK) can be used to determine the particle size, the polydispersity index (PDI) and the zeta potential of the nanoparticle compositions in 1×PBS in determining particle size and 15 mM PBS in determining zeta potential.
Initial studies were performed to compare the delivery efficiency of nanoparticle compositions including various compounds according to Formula (I), (IA), (II), (IIa), (IIb), (IIc), (IId) or (IIe). The cationic lipid MC3 is a current standard in the art. Accordingly, the standard MC3 formulation including about 50 mol % MC3, about 10 mol % DSPC, about 38.5 mol % cholesterol, and about 1.5 mol % PEG-DMG was used as a basis for this study. Nanoparticle compositions including DSPC as a phospholipid, cholesterol as a structural lipid, PEG-DMG as a PEG lipid, an RNA, and a compound according to Formula (I), (IA), (II), (IIa), (IIb), (IIc), (IId) or (IIe) selected from Compounds 1-159, 168-170, and 173-175 were prepared according to or via methods similar to those described in Examples 1 and 2. The ratios of the lipids were 50:10:38.5:1.5 mol % for the lipid according to Formula (I), (IA), (II), (IIa), (IIb), (IIc), (IId) or (IIe):DSPC:cholesterol:PEG-DMG. The RNA used was an mRNA encoding G5 luciferase (Luc) or G5 hEPO. Tables 1A-1B summarize the content and characteristics of the formulations. […]

[2] = test system: mice; assay: Cytokine induction (IL-6, IP-10) in mice after intravenous administration; assay type: in vivo; set-up: IL-6 / IP-10: unit not given here; conditions: 0.5 mpk, 6 hours
Description: The introduction of foreign material into a mammalian body induces an innate immune response that promotes cytokine production. Such immune responses to, for example, nanoparticle compositions including therapeutic and/or prophylactics, are undesirable. The induction of certain cytokines is thus measured to evaluate the […] of nanoparticle compositions. The concentrations of various cytokines in mice upon intravenous administration of nanoparticle compositions presented in Table 1A at a dosage of 0.5 mpk was measured at 6 hours. The standard MC3 formulation and a PBS control were also tested. As is evident in Table 7, IL-6 induction was highest for compositions including Compounds 1, 3, 9, 19, and 26, while IP-10 induction was highest for compositions including Compounds 3, 4, 7, 20, and 26. IL-6 induction was lowest for compositions including Compounds 4, 11, 12, and 28. IP-10 induction was lowest for compositions including Compounds 10, 11, 12, 13, 15, 17, and 18.
The expression of hEPO and cytokine induction in mice intravenously administered a nanoparticle composition at a dose of 0.5 mpk were measured at 3, 6, and 24 hours. […] The expression of hEPO in mice intramuscularly administered a nanoparticle composition from Table 1B at a dose of 0.01 mpk were measured at 3, 6, and 24 hours. […] (see also FIG. 9.)

[3] = test system: mice; assay: Luc expression (bioluminescence, total flux) after intravenous administration to mice; assay type: in vivo; conditions: for 6 h Lipid/MC3 G.M. Luc Expression / AUC (h*p/s): i.v. administration; for 6 h Lipid/MC3 G.M. Luc Expression: geometric mean; for AUC (h*p/s): total Luc flux (Table 3C)
Description: (§1) In order to monitor how effectively various nanoparticle compositions deliver therapeutic and/or prophylactics to targeted cells, different nanoparticle compositions including a particular therapeutic and/or prophylactic (for example, a modified or naturally occurring RNA such as an mRNA) are prepared and administered to rodent populations. Mice are intravenously, intramuscularly, intraarterially, or intratumorally administered a single dose including a nanoparticle composition with a formulation such as those provided in Example 3. In some instances, mice may be made to inhale doses. Dose sizes may range from 0.001 mg/kg to 10 mg/kg, where 10 mg/kg describes a dose including 10 mg of a therapeutic and/or prophylactic in a nanoparticle composition for each 1 kg of body mass of the mouse. A control composition including PBS may also be employed.
Upon administration of nanoparticle compositions to mice, dose delivery profiles, dose responses, and toxicity of particular formulations and doses thereof can be measured by enzyme-linked immunosorbent assays (ELISA), bioluminescent imaging, or other methods. For nanoparticle compositions including mRNA, time courses of protein expression can also be evaluated. Samples collected from the rodents for evaluation may include blood, sera, and tissue (for example, muscle tissue from the site of an intramuscular injection and internal tissue); sample collection may involve sacrifice of the animals.
The efficacy of the nanoparticle compositions presented in Table 1A was evaluated with a bioluminescence study. Formulations were administered intravenously to mice (n=6) at a dosage of 0.5 mg/kg (mpk) and bioluminescence measured at 3, 6, and 24 hour time points. The standard MC3 formulation and, in some instances, a control (e.g., a PBS control) were evaluated for comparison. […] In general, flux decreased as time progressed to less than 10% of the initial flux.
(§2) The total flux (measured by area under the curve, AUC) induced by administration of a formulation including a given lipid relative to that induced by administration of a formulation including MC3 was also measured for several lipids.
The tolerability and efficacy of nanoparticle compositions to non-human primates was also investigated using sample formulations including Compounds 18, 25, 26, and 48 and MC3 to determine if these compounds are differentiated in terms of protein expression. The formulations were prepared according to the standard MC3 formulation described above and included an hEPO mRNA. Table 30 includes details of the compositions tested, while Table 31 summarizes the relative expression of Luc and hEPO mRNA in mice and rats. Expression was measured 6 hours after administration.

[4] = test system: mice; assay: Luc expression (total flux) after intramuscular administration; assay type: in vivo; conditions: 6 hours after intramuscular administration, Luc mRNA and H10 mRNA
Description: The numbers 1-7 in this figure correspond to MC3, Compounds 168-170, and 173-175 respectively.
as §1, §2
Sample formulations including both modified luciferase (Luc) mRNA and H10 mRNA were prepared and administered intramuscularly and the resulting expression and immunogenicity were evaluated simultaneously. Formulations including compounds according to Formula (I), (IA), (II), (IIa), (IIb), (IIc), (IId) or (IIe) were prepared and administered at doses of 0.001 and 0.01 mpk (e.g., doses of 0.0005 mpk of a formulation including Luc mRNA and a formulation including H10 mRNA or doses of 0.005 mpk of a formulation including Luc mRNA and a formulation including H10 mRNA).
Sample formulations including modified luciferase (Luc) mRNA prepared and administered intramuscularly and the resulting expression and immunogenicity were evaluated simultaneously. Formulations including compounds according to Formula (I), (IA), (II), (IIa), (IIb), (IIc), (IId) or (IIe) were prepared and administered at dose of […] 0.01 mpk.
The fluxes measured upon intravenous and intramuscular administration are compared in Table 6. Fluxes are presented as fold increase over that measured for MC3 formulations.

SMILES	Size (nm) [1] [nm]	IL-6 [2]	PDI [1]	also measured
CCCCCCCCCOC(=O)CCCCCCCN(CCCCO)CCCCCCCC(=O)OC(CCCCCCCC)CCCCCCCC [Compound 20, Heptadecan-9-yl 8-((4-hydroxybutyl)(8-(nonyloxy)-8-oxooctyl)amino) octanoate]	111.5	126.83		
CCCC/C=C\CCC(CC/C=C\CCCC)OC(=O)CCCCCCCN(CCO)CCCCCC(=O)OCCCCCCCCCCC [Compound 61, (5Z,12Z)-heptadeca-5,12-dien-9-yl 8-((2-hydroxyethyl)(6-oxo-6-(undecyloxy)hexyl)amino)octanoate]	89.1		0.11	
CCCCCCCCC(CCCCCCCC)OC(=O)CCCCCCCN(CCO)CCCCCCCC(=O)OC1CCC(CCCCC)CC1 (stereo not shown) [Compound 66, Heptadecan-9-yl 8-((2-hydroxyethyl)(8-oxo-8-((4-pentylcyclohexyl)oxy)octyl)amino)octanoate]				6 h Lipid/MC3 G.M. Luc Expression [3]: 5.23; AUC (h*p/s) [3]: 6.76E+11 h*p/s
CCCCCCCCC(CC)OC(=O)CCCN(CCO)CCCCCCCC(=O)OC(CCCCCCCC)CCCCCCCC (stereo not shown) [Compound 72, Heptadecan-9-yl 8-((2-hydroxyethyl)(4-oxo-4-(undecan-3-yloxy)butyl)amino)octanoate]	65.4		0.11	
CCCCCCCCC(CC)OC(=O)CCCCCN(CCO)CCCCCCCC(=O)OC(CCCCCCCC)CCCCCCCC (stereo not shown) [Compound 75, Heptadecan-9-yl 8-((2-hydroxyethyl)(6-oxo-6-(undecan-3-yloxy)hexyl)amino)octanoate]	64.2		0.10	
CCCCCCCCCC(=O)OCCCCCCCN(CCO)CCCCCCCC(=O)OC(CCCCCCCC)CCCCCCCC [Compound 96, 7-((8-(Heptadecan-9-yloxy)-8-oxooctyl)(2-hydroxyethyl)amino)heptyl decanoate]				AUC (p/s*h) ([3]; Luc total flux (Table 3D)): 1.209E+012 p/s*h
CCCCCCCCCOC(=O)CCCCCCCN(CCCCCCCC(=O)OC(CCCCCCCC)CCCCCCCC)CCN1CCN(C)CC1 [Compound 101, Heptadecan-9-yl 8-((2-(4-methylpiperazin-1-yl)ethyl)(8-(nonyloxy)-8-oxooctyl)amino)octanoate]				6 h Lipid/MC3 G.M. Luc Expression [3]: 0.011; AUC (h*p/s) [3]: 1.8E+09 h*p/s
CCCCCCCCCOC(=O)CCCCCCCN(CCCCCCCC(=O)OC(CCCCCCCC)CCCCCCCC)CCCNC(=O)N(C)C [Compound 110, Heptadecan-9-yl 8-((3-(3,3-dimethylureido)propyl)(8-(nonyloxy)-8-oxooctyl)amino)octanoate]	118		0.13	
CCCCCCCCCOC(=O)CCCCCCCN(CCCCCCCC(=O)OC(CCCCCCCC)CCCCCCCC)CCCNC(=O)NC [Compound 112, Heptadecan-9-yl 8-((3-(3-methylureido)propyl)(8-(nonyloxy)-8-oxooctyl)amino)octanoate]	85.7		0.12	
CCCCCCCCCOC(=O)CCCCCCCN(CCCCCCCC(=O)OC(CCCCCCCC)CCCCCCCC)CCCNC(=S)NC [Compound 113, Heptadecan-9-yl 8-((3-(3-methylthioureido)propyl)(8-(nonyloxy)-8-oxooctyl)amino)octanoate]	69.2		0.15	
CCCCCCCCC(CCCCCCCC)OC(=O)CCCCCCCN(CCO)CCCCCC(=O)OC(CCCCCCCC)C1CC1 (stereo not shown) [Compound 128, Heptadecan-9-yl 8-((6-((1-cyclopropylnonyl)oxy)-6-oxohexyl)(2-hydroxyethyl)amino)octanoate]	69.4		0.14	
CCCCCCCCCCCCN(CCO)CCCCCCCCCCCC(=O)OC [Compound 137, Methyl 12-(dodecyl(2-hydroxyethyl)amino)dodecanoate]		130.82		Total flux (p/s) 0.001 mpk Dose [4]: 7.57E+04 p/s; Total flux (p/s) 0.01 mpk Dose [4]: 8.09E+04 p/s; IP-10 [2]: 234.35
CCCCCCCCCOC(=O)CCCCCCCN(CCO)CCCCCCCC(=O)OCCCCCCCCC [Compound 138, Dinonyl 8,8′-((2-hydroxyethyl)azanediyl)dioctanoate]		23.38		Total flux (p/s) 0.001 mpk Dose [4]: 2.72E+05 p/s; Total flux (p/s) 0.01 mpk Dose [4]: 1.19E+06 p/s; IP-10 [2]: 172.56
CCCCCCCC/C=C\COC(=O)CCCCCN(CCO)CCCCCC(=O)OC/C=C\CCCCCCCC [Compound 140, Di((Z)-undec-2-en-1-yl) 6,6′-((2-hydroxyethyl)azanediyl)dihexanoate]		282.82		Total flux (p/s) 0.001 mpk Dose [4]: 2.03E+05 p/s; Total flux (p/s) 0.01 mpk Dose [4]: 6.09E+05 p/s; IP-10 [2]: 187.83
CCCCCCCCCOC(=O)CCCCCCCN(CCO)CCCCCCCC(=O)N(CCCCCCCC)CCCCCCCC [Compound 144, Nonyl 8-((8-(dioctylamino)-8-oxooctyl)(2-hydroxyethyl)amino)octanoate]		319.46		Total flux (p/s) 0.001 mpk Dose [4]: 2.72E+06 p/s; Total flux (p/s) 0.01 mpk Dose [4]: 2.18E+07 p/s; IP-10 [2]: 4220.55
